Values of other authors, collected in patent publication US6458386B1, “Medicaments based on polymers composed of methacrylamide-modified gelatin” (Innogenetics N.V., priority 1997, dated 2002).

How the values were obtained:
large cutaneous burns = settings: children
chronic pressure ulcers = settings: humans
[1] = tested on: full thickness macular holes; settings: human eyes

Human Growth Hormone: hormone
wound healing of large cutaneous burns (large cutaneous burns): accelerate wound healing

Platelet Derived Growth Factor
wound healing of chronic pressure ulcers (chronic pressure ulcers): wound healing stimulator

Transforming Growth Factor-β
effect in treatment of full thickness macular holes [1]: beneficial effects
